Results reported in patent US12358911B2, “Heterocyclic comipound as CDK-HDAC dual pathway inhibitor” (Hangzhou Innogate Pharma Co., Ltd., priority 2018, dated 2025).

Columns and labels:
Type in all cases: biochemical
CDK2/CycA2 = CDK2/CycA2 (Homo sapiens (Human), UniProt P24941); test: CDK2 kinase assay (Mobility Shift Assay); details: 28° C.
Method: (§1) • Method 1: In vitro enzymatic activity of the CDK isoforms CDK2/CycA2, CDK4/CycD3 and CDK6/cycD3 were measured using Mobility Shift Assay that monitors phosphorylation ratio of FAM labelled peptide (Peptide 18 for CDK2/CycA2, Peptide 8 for CDK4/CycD3). CDK2/CycA2 and CDK6/CycD3 were assayed under buffer conditions in the presence of 50 mM HEPES (pH 7.5), 10 mM MgCl2, 0.0015% Brij-35 and 2 mM dithiothreitol; CDK4/CycD3 with buffer condition of 20 mM HEPES (pH 7.5), 10 mM MgCl2, 0.01% Triton X-100 and 2 mM dithiothreitol. Prepare compounds to 50× of the final desired highest inhibitor concentration by 100% DMSO and serial dilution in 3-fold for total of 10 concentrations. For each isoform, dosage of enzyme and substrate are CDK2/CycA2 12 nM, ATP Km 39 μM; CDK4/CycD3 10 nM, ATP Km 221 μM; CDK6/cycD3 15 nM, ATP Km 800 μM. After assay for 60 min, 180 min, 60 min respectively at 28° C., reactions were terminated with stop solution (50 mM EDTA, 0.015% Brij-35, 0.2% Coating Reagent #3 and 100 mM HEPES (pH 7.5)). Collect conversion on Caliper EZ Reader. IC50 values were calculated by fitting the dose-response curves with Xlfit excel add-in version 4.3.1. • Method 2: In vitro enzymatic activity of the CDK isoforms CDK2/CycA2, CDK4/CycD3 and CDK6/CycD3 were measured using Mobility Shift Assay that monitors phosphorylation ratio of FAM labelled peptide (Peptide 18 for CDK2/CycA2, Peptide 8 for CDK4/CycD3 and CDK6/CycD3). CDK2/CycA2, CDK4/CycD3 and CDK6/cycD3 were assayed under buffer conditions in the presence of 50 mM HEPES (pH 7.5), 10 mM MgCl2, 0.0015% Brij-35 and 2 mM dithiothreitol. Prepare compounds to 100× of the final desired highest inhibitor concentration by 100% DMSO and serial dilution in 3-fold for total of 10 concentrations, each concentration contains 1% DMSO. […] After assay for 30 min, 150 min, 150 min respectively at 28° C., reactions were terminated with stop solution (50 mM EDTA, 0.015% Brij-35, 0.2% Coating Reagent #3 and 100 mM HEPES (pH 7.5)). Collect conversion on Caliper EZ Reader. IC50 values were calculated by fitting the dose-response curves with GraphPad Prism V5.0.

[1] = target: recombinant, full-length HDAC-6 (Homo sapiens (Human), UniProt Q9UBN7); test: HDAC-6 assay (fluorogenic Ac-peptide-AMC)
Method: (§2) 2. HDAC-1 and HDAC-6 Assays: • Method 1: The inhibitory effect of compounds on HDAC-1 and HDAC-6 function was determined in vitro using an optimized homogenous assay performed in 384-well plate format. In this assay, recombinant, full-length HDAC-1 or HDAC-6 protein (BPS Biosciences) was incubated with Ac-peptide-AMC with concentration in Km plot. Reactions were performed in Tris-based assay buffer and followed for fluorogenic release of 7-amino-4-methylcoumarin from substrate upon deacetylase and trypsin enzymatic activity. Fluorescence measurements were obtained using a multilabel plate reader (Synergy MX with excitation at 355 nm and emission at 460 nm.). Data were analyzed on a plate-by-plate basis for the linear range of fluorescence over time. Fit the data in GraphPad Prism V5.0 software to obtain ICso values using equation (Y=Bottom+(Top−Bottom)/(1+10^((Log IC50−X)*Hill Slope), Y is % inhibition and X is compound concentration).
as §2, with “The testing results of the representative compounds are listed in Table 1 below. •” for “2. HDAC-1 and HDAC-6 Assays: •”, “Method 2:” for “Method 1:”, “HDAC-1 (Active Motif) and” for “HDAC-1 or”, “(Synergy” for “(Synergy MX”, “obtain IC50” for “obtain ICso”

CDK4/CycD3 = CDK4/CycD3 (Homo sapiens (Human), UniProt P11802); test: CDK4 kinase assay (Mobility Shift Assay); details: 28° C.
Method: as §1

CDK6/CycD3 = CDK6/CycD3 (Homo sapiens (Human), UniProt Q00534); test: CDK6 kinase assay (Mobility Shift Assay); details: 28° C.
Method: as §1

[2] = target: recombinant, full-length HDAC-1 (Homo sapiens (Human), UniProt Q13547); test: HDAC-1 assay (fluorogenic Ac-peptide-AMC)
Method: as §2
as §2, with “The testing results of the representative compounds are listed in Table 1 below. •” for “2. HDAC-1 and HDAC-6 Assays: •”, “Method 2:” for “Method 1:”, “HDAC-1 (Active Motif) and” for “HDAC-1 or”, “(Synergy” for “(Synergy MX”, “obtain IC50” for “obtain ICso”

[3] = method 1: CDK2/CycA2 12 nM, ATP Km 39 μM, 60 min
[4] = method 1: HDAC-6 protein (BPS Biosciences)
[5] = method 1: CDK4/CycD3 10 nM, ATP Km 221 μM, 180 min
[6] = method 1: CDK6/cycD3 15 nM, ATP Km 800 μM, 60 min
[7] = method 1: HDAC-1 protein (BPS Biosciences)
[8] = method 2: CDK2/CycA2 2.5 nM, ATP Km 17 μM, 30 min
[9] = method 2: HDAC-6 protein (BPS Biosciences)
[10] = method 2: CDK4/CycD3 10 nM, ATP Km 250 μM, 150 min
[11] = method 2: CDK6/cycD3 5 nM, ATP Km 550 μM, 150 min
[12] = method 2: HDAC-1 (Active Motif)

Sequence of CDK4/CycD3 (P11802 whole entry, species assumed): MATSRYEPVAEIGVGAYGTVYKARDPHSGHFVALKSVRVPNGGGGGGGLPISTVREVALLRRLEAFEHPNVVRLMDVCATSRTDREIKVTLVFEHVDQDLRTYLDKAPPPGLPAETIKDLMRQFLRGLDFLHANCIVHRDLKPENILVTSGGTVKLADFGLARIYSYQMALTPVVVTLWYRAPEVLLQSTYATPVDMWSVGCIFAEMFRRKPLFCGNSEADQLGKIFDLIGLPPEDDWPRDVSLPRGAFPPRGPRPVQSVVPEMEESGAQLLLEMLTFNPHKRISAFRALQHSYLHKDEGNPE
Sequence of CDK4/CycD3 (P30281 whole entry partner, species assumed): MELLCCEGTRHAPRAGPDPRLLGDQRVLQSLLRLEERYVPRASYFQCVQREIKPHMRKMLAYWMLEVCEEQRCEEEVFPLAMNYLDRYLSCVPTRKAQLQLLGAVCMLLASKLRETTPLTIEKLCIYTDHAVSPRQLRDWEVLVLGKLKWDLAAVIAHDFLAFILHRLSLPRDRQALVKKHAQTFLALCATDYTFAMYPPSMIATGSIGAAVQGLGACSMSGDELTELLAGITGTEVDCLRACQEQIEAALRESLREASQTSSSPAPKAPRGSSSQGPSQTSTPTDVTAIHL
Sequence of recombinant, full-length HDAC-6 (Q9UBN7 whole entry): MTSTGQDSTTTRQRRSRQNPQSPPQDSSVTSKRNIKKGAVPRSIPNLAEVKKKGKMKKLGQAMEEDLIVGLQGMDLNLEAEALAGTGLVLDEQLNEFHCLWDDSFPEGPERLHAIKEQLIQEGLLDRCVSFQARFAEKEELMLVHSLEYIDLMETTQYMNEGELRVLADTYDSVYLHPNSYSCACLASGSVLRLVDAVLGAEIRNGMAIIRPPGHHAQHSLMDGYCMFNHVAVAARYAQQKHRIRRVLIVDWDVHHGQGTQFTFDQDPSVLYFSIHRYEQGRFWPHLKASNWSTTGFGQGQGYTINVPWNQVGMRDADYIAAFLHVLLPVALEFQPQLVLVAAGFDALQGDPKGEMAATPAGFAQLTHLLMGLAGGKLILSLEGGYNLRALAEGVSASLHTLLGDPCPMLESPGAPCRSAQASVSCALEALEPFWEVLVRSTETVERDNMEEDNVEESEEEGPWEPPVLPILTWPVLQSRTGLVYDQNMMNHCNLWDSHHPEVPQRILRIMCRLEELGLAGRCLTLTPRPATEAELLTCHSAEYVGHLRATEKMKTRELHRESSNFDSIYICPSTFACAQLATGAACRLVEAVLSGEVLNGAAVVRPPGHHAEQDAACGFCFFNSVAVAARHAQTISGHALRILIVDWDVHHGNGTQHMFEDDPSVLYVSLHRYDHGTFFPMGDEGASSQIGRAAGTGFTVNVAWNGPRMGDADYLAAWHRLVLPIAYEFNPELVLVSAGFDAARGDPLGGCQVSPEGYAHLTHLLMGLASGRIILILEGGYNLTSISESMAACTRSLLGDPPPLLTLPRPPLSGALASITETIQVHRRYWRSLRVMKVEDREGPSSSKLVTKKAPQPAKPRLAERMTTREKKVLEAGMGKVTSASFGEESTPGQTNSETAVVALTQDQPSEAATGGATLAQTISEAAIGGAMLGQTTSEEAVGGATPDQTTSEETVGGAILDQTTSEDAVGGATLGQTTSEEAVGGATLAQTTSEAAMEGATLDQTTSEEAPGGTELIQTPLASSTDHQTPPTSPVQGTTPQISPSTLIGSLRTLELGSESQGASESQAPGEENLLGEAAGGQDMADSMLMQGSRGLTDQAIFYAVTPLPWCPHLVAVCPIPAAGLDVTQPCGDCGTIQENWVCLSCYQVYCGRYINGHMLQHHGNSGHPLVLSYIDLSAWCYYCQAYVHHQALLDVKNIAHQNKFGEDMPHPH
Sequence of CDK6/CycD3 (Q00534 whole entry, species assumed): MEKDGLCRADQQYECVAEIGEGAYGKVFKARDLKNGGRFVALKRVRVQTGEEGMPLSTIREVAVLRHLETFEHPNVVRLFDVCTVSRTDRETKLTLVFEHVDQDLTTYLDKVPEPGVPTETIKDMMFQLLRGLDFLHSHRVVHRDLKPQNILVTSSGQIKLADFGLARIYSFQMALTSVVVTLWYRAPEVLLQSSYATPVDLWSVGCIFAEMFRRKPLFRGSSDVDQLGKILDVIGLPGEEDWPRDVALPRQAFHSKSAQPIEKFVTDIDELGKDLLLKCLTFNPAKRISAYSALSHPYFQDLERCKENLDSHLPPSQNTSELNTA
Sequence of CDK6/CycD3 (P30281 whole entry partner, species assumed): as the sequence (P30281 whole entry partner, species assumed) above
Sequence of recombinant, full-length HDAC-1 (Q13547 whole entry): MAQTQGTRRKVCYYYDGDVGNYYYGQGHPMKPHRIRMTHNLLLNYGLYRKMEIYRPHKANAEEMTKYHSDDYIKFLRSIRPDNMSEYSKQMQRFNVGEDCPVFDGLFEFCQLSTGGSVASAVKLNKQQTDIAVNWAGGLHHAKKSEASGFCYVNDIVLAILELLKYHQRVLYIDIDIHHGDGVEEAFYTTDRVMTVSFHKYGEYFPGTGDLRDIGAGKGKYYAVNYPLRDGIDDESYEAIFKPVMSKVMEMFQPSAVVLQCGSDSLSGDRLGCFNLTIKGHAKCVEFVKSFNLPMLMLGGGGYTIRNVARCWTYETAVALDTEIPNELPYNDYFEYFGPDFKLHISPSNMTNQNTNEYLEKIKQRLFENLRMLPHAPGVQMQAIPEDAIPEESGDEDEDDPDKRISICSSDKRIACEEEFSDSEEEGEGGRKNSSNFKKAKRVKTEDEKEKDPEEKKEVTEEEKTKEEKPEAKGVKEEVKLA

| SMILES | IC50 (CDK2/CycA2; [3]) [nM] | IC50 [1, 4] [nM] | IC50 (CDK4/CycD3; [5]) [nM] | IC50 (CDK6/CycD3; [6]) [nM] | IC50 [2, 7] [nM] | IC50 (CDK2/CycA2; [8]) [nM] | IC50 [1, 9] [nM] | IC50 (CDK4/CycD3; [10]) [nM] | IC50 (CDK6/CycD3; [11]) [nM] | IC50 [2, 12] [nM] |
| --- | --- | --- | --- | --- | --- | --- | --- | --- | --- | --- |
| CC(=O)c1c(C)c2cnc(Nc3ccc(N(C)CCN(C)c4ncc(C(=O)NO)cn4)cn3)nc2n(C2CCCC2)c1=O [Compound 1, 2-((2-((6-((6-acetyl-8-cyclopentyl-5-methyl-7-oxo-7,8-dihydropyrido[2,3-d]pyrimidin-2-yl)amino)pyridin-3-yl) (methyl)amino)ethyl) (methyl)amino)-N-hydroxypyrimidine-5-carboxamide] | > 10000 | 10 to 50 | ≤ 10 | 25 to 50 | 5 to 10 |  |  |  |  |  |
| CC(=O)c1c(C)c2cnc(Nc3ccc(N(C)Cc4ccc(/C=C/C(=O)NO)cc4)cn3)nc2n(C2CCCC2)c1=O [Compound 2, (E)-3-(4-(((6-((6-acetyl-8-cyclopentyl-5-methyl-7-oxo-7,8-dihydropyrido[2,3-d]pyrimidin-2-yl)amino)pyridin-3-yl)(methyl)amino)methyl)phenyl)-N-hydroxyacrylamide] | > 2000 | 50 to 75 | 10 to 25 | 50 to 100 | 10 to 50 |  |  |  |  |  |
| CC(=O)c1c(C)c2cnc(Nc3ccc(N(C)CCN(C)c4ccc(C(=O)NO)cn4)cn3)nc2n(C2CCCC2)c1=O [Compound 3, 6-((2-((6-((6-acetyl-8-cyclopentyl-5-methyl-7-oxo-7,8-dihydropyrido[2,3-d]pyrimidin-2-yl)amino)pyridin-3-yl)(methyl)amino)ethyl)(methyl)amino)-N-hydroxynicotinamide] |  |  |  |  |  | > 2000 | 75 to 100 | 10 to 25 | 25 to 50 | 50 to 75 |
| CC(=O)c1c(C)c2cnc(Nc3ccc(N(C)CCN(C)c4ccc(C(=O)NO)nc4)cn3)nc2n(C2CCCC2)c1=O [Compound 4, 5-((2-((6-((6-acetyl-8-cyclopentyl-5-methyl-7-oxo-7,8-dihydropyrido[2,3-d]pyrimidin-2-yl)amino)pyridin-3-yl)(methyl)amino)ethyl)(methyl)amino)-N-hydroxypicolinamide] |  |  |  |  |  | > 5000 |  | ≤ 10 | 25 to 50 |  |
| CC(=O)c1c(C)c2cnc(Nc3ccc(OCCN(C)c4ccc(C(=O)NO)cn4)cn3)nc2n(C2CCCC2)c1=O [Compound 5, 6-((2-((6-((6-acetyl-8-cyclopentyl-5-methyl-7-oxo-7,8-dihydropyrido[2,3-d]pyrimidin-2-yl)amino)pyridin-3-yl)oxy)ethyl)(methyl)amino)-N-hydroxynicotinamide] |  |  |  |  |  | > 2000 | 5 to 10 | ≤ 10 | 25 to 50 | ≤ 5 |
| CC(=O)c1c(C)c2cnc(Nc3ccc(N4CCC(C(=O)NO)CC4)cn3)nc2n(C2CCCC2)c1=O [Compound 7, 1-(6-((6-acetyl-8-cyclopentyl-5-methyl-7-oxo-7,8-dihydropyrido[2,3-d]pyrimidin-2-yl)amino)pyridin-3-yl)-N-hydroxypiperidine-4-carboxamide] |  |  |  |  |  | > 2000 |  | ≤ 10 | 25 to 50 |  |
| CC(=O)c1c(C)c2cnc(Nc3ccc(N(C)CCN(C)c4ccc(C(=O)NO)cc4)cn3)nc2n(C2CCCC2)c1=O [Compound 8, 4-((2-((6-((6-acetyl-8-cyclopentyl-5-methyl-7-oxo-7,8-dihydropyrido[2,3-d]pyrimidin-2-yl)amino)pyridin-3-yl) (methyl)amino)ethyl) (methyl)amino)-N-hydroxybenzamide] |  |  |  |  |  | > 5000 |  | ≤ 10 | 25 to 50 |  |
| CC(=O)c1c(C)c2cnc(Nc3ccc(N(C)CCCCCCC(=O)NO)cn3)nc2n(C2CCCC2)c1=O [Compound 9, 7-((6-((6-acetyl-8-cyclopentyl-5-methyl-7-oxo-7,8-dihydropyrido[2,3-d]pyrimidin-2-yl)amino)pyridin-3-yl)(methyl)amino)-N-hydroxyheptanamide] |  |  |  |  |  | > 5000 | 10 to 50 | 10 to 25 | 25 to 50 | 5 to 10 |
| CC(=O)c1c(C)c2cnc(Nc3ccc(OCCN(C)c4ncc(C(=O)NO)cn4)cn3)nc2n(C2CCCC2)c1=O [Compound 10, 2-((2-((6-((6-acetyl-8-cyclopentyl-5-methyl-7-oxo-7,8-dihydropyrido[2,3-d]pyrimidin-2-yl)amino)pyridin-3-yl)oxy)ethyl)(methyl)amino)-N-hydroxypyrimidine-5-carboxamide] |  |  |  |  |  | > 10000 | 10 to 50 | 10 to 25 | 25 to 50 | ≤ 5 |
